Measurements as given in patent US20230218555A1, “CREATINE, ITS DERIVATIVES, COMPOSITIONS AND METHODS OF USE THEREOF” (priority 2021, published 2023).
“Also recorded” adds a separate entry of the source.

Key:
Type in all cases: in vivo, human
[1] = system: painful left knee; assay: Example 10: acute knee pain after physical trauma
From the text: A subject with painful left knee gave a history of physical trauma to the left knee while cleaning their house. Degree of pain was sufficiently intense that it required them to wear a knee brace throughout the day, daily. […] The subject was provided a formulation of N-acetyl ethyl creatinate 1.5% dissolved in water: propylene glycol 8:2 for topical application.

[2] = system: rheumatoid arthritis; rheumatoid nodule; assay: Example 13: rheumatoid arthritis fingers, nodule injection and glove application; details: left hand only
Description: A subject noted changes in their fingers that appeared to be compatible with the diagnosis of early rheumatoid arthritis in autumn of the year. At about one month later there appeared over the terminal interphalangeal joint of the left third finger a raised inflammatory nodule compatible with the diagnosis of a rheumatoid nodule. The nodule was injected with 0.15 ml of a 2% aqueous solution/suspension of creatine monohydrate once weekly for four injections. […] Thereafter, for a period of one month, the subject wore a nitrile glove containing a few drops N-acetyl ethyl creatine 3% dissolved in water: propylene glycol 8:2 for about an hour twice daily on the left hand only.

[3] = system: thermal burns; assay: Example 22: pain of thermal burns, topical; details: for relief of burn pain: person
From the text: One subject spilled boiling hot water on their left hand. Within a couple hours pain was intense. They then applied 4% solution of N-acetyl ethyl creatinate (C15) dissolved in water: ethanol: propylene glycol 5:3:2 which they had been using to relieve pain over a lateral meniscus. […] Such application was continued over the next several days until the burn pain disappeared spontaneously.
A second subject burned their forearm where they accidentally touched the hot oven rack. They immediately applied 9% solution of N-acetyl ethyl creatinate (C15) dissolved in water: ethanol: propylene glycol 5:3:2 that they were using for topical treatment of their rheumatoid arthritis. […] Repeated application were applied over the next 3 days, until the burn pain spontaneously ceased.

[4] = system: muscular pain of upper right back, dystonia; assay: Example 23: pain of dystonia, local subcutaneous injections
Description: Five sites of the upper back were injected with 0.3 ml C15 in aqueous solution using insulin syringes with 30G short needles. […] At that time the injections were repeated just before […] departed on a trip to Europe.

[5] = system: painful right shoulder; assay: Example 24: osteoarthritis, shoulder
From the text: The same subject above has had painful right shoulder for several months.

[6] = system: psoriatic arthritis; assay: Example 25: psoriatic arthritis, topical C15
From the text: A subject with a 42 year history of psoriasis, and psoriatic arthritis for the past 8 years, was provided a topical solution of C15 4% in WP 82. […] The subject has used topical formulations of C15 for over 12 weeks, comparing efficacy of 2%, 3.5% and 5% concentrations of C15.

[7] = system: migraine headaches and associated symptoms; assay: Example 29: migraine headache
Description: A subject, with a history of migraine headaches and associated symptoms, presented with a recurrent episode of such that had begun during their night of sleep. Symptoms included an intense frontal headache, and feeling of light dizziness, and nausea when they turned their head. They were provided a 9% solution of C15 dissolved in WEP 532 to be applied to the forehead and temporal areas as needed to relieve symptoms. […] Relief lasted for 1-4 hours during the first day of use, and during the second day of use, the subject experienced a much longer period of relief of symptoms.

[8] = system: eczema; assay: Examples 30 and 37: itch and eczema
From the text: subject two, with a 25 year history of eczema, was provided a topical formulation of 6% C15 in a lotion made up of hydrophilic ointment USP 35% diluted with 65% water. […] They emphasized, however, that their eczema worsens in the autumn and winter, so their final judgment needs to be delayed from the summer season to several months later.
subject four with a 14 year history of eczema was provided the same lotion.
subject three, with a history of eczema for 35 years, was provided the same solution. […] They have expressed great gratitude and hopes that the same beneficial results will persist during the autumn and winter seasons.
subject two, with a 25 year history of eczema, was provided a topical formulation of 6% C15 in a lotion made up of hydrophilic ointment USP 35% diluted with 65% water. After ten days of topical applications, itch was relieved for intervals of 1.5 hour up to 24 hours. […] Sites of itch were treated with prompt application of the above lotion which completely aborted further development.
subject four with a 14 year history of eczema was provided the same lotion. […] Patient has moved from the area and has been lost to long term follow up.
subject three, with a history of eczema for 35 years, was provided the same formulation. […] They expressed great gratitude and hoped that the same beneficial results would persist during the autumn and winter months.
They reported: “I use it sparingly. If I feel any itch or see a little patch I put it on and it's gone like the next day. […] It's so great. It's miraculous!”

[9] = system: erythematous pharyngitis; assay: Example 31: sore throat, spray mist
Description: A subject, upon arising from bed in the morning, was acutely aware of a severe sore throat. […] They were provided, in a 2 oz spray container, a 3% aqueous solution of C15 that they sprayed into their moth toward the inflamed pharynx. […] Repeated spraying during the day were followed by longer pain free intervals. They reported that at 7 PM the last pain free interval had been 1 hour. Next morning the pharyngitis had improved, and the subject used spray mist less frequently.

[10] = system: dermatitis of uncertain etiology; assay: Example 32: itch of dermatitis of uncertain etiology
Description: subject one who had worked planting a new rock and flower garden during the day, in the evening became acutely aware of an itch sensation in the lower back, just below the beltline. […] Itch relief lasted for 2-3 hours; three additional applications were made during the night. […] Etiology was not ascertained.

[11] = 6% lotion as needed, person three

Q: With `CCOC(=O)CN(C)C(N)=NC(C)=O` [Compound C15, N-acetyl ethyl creatinate] as the molecule, how does the “time to pain relief after application” value ([1]; 1.5% in water: propylene glycol 8:2, topical) read?
A: about 2 minutes

Q: And the “extent of pain relief” value ([1]; 1.5% in water: propylene glycol 8:2, topical, person)?
A: pain in the knee completely vanished

Q: What about the recurrence of pain ([1]; at report 10 days later) of the same molecule?
A: Pain had not recurred

Q: What about the “pain on making a fist” value ([2]; 3% in glove) of the same molecule?
A: the left fist was pain free whereas the right fist was substantially painful

Q: And the “size of tight fist” value ([2]; 3% in glove)?
A: the size of the left fist was visibly smaller than that of the right

Q: And the “flexibility of hand and fingers” value ([2]; 3% in glove, right hand restricted)?
A: The left hand and fingers were completely flexible

Q: What about the “feel of treated left hand vs untreated right hand” value ([2]; 3% in water: propylene glycol 8:2 in nitrile glove, about an hour twice daily, one month, after another two months) of the same molecule?
A: feel much better than the right hand

Q: And the “relief of burn pain” value ([3]; 4% in water: ethanol: propylene glycol 5:3:2, topical, hand)?
A: immediate relief of the burn pain

Q: What about the duration of relief ([3]; 4% solution) of the same molecule?
A: 4 to 5 h

Q: What about the “relief of burn pain” value ([3]; 9% in water: ethanol: propylene glycol 5:3:2, topical, forearm) of the same molecule?
A: Burn pain was completely instantly relieved

Q: And the duration of relief ([3]; 9% solution)?
A: 4 to 5 h

Q: What about the duration of relief ([4]; first injections) of the same molecule?
A: 2 weeks

Q: What about the “extent of pain relief” value ([4]; five sites of upper back injected with 0.3 ml aqueous solution) of the same molecule?
A: Complete relief of pain

Q: And the “time to pain relief” value ([4]; five sites, 0.3 ml)?
A: within the next hour

Q: What about the “duration of relief after repeated injections” value ([4]; repeated injections) of the same molecule?
A: lasting beyond two week period

Q: And the duration of relief ([5]; subcutaneous 1 ml)?
A: 6 to 7 days

Q: And the “extent of pain relief” value ([5]; subcutaneous 1 ml of 1.5% aqueous solution, three occasions, person)?
A: complete relief of pain

Q: And the duration of relief ([6]; 4% in WP 82)?
A: 6 to 24 h

Q: And the relief of pain ([6]; 4% in WP 82, topical to wrists, hands, fingers and ankles, person)?
A: almost instantaneous, complete relief of pain

Q: And the “comparison of 2%, 3.5% and 5% concentrations” value ([6]; 5% administered as a spray mist)?
A: most effective of the three

Q: And the “duration of complete pain relief” value ([6]; 5% spray mist)?
A: 24 h

Q: And the relief of symptoms ([7]; 9% in WEP 532, to forehead and temporal areas)?
A: relieved symptoms within a few minutes

Q: What about the duration of relief ([7]; first day of use) of the same molecule?
A: 1 to 4 h

Q: What about the “symptoms at end of third day” value ([7]; following 3 more applications) of the same molecule?
A: symptoms were no longer detectable

Q: What about the follow-up ([7]; next week) of the same molecule?
A: remained symptoms free over the next week of follow-up

Q: What about the “itch after 4 days of application” value [8, 11] of the same molecule?
A: itch was now negligible; also recorded: itch became negligible

Q: What about the “signs of eczema on skin” value [8, 11] of the same molecule?
A: skin was nearly entirely free of signs of eczema; also recorded: skin became nearly entirely free of signs of eczema

Q: And the “extent of itch relief” value ([8]; 6% lotion, 2 weeks, person four)?
A: itch was relieved completely

Q: What about the “duration of itch relief after a single application” value ([8]; 6% lotion, person four) of the same molecule?
A: 24 to 48 h

Q: And the “eczema after ten days” value ([8]; 6% lotion, person two)?
A: felt that their eczema was undergoing resolution

Q: And the “eczema at the end of the following February” value ([8]; 6% lotion, person two)?
A: eczema was still under almost complete resolution

Q: What about the “skin at the end of February” value ([8]; person three) of the same molecule?
A: their skin has remained clear

Q: And the relief of pain ([9]; 3% aqueous solution sprayed toward pharynx)?
A: immediate complete relief of pain

Q: What about the “duration of relief, first spraying” value ([9]; 3% aqueous spray) of the same molecule?
A: 25 min

Q: And the “last pain free interval at 7 PM” value ([9]; repeated spraying during the day)?
A: 1 h

Q: And the “extent of itch relief” value ([10]; 4% in water: propylene glycol 8:2, topical)?
A: Itch was completely relived

Q: What about the “duration of itch relief” value ([10]; 4% topical) of the same molecule?
A: 2 to 3 h

Q: What about the “resolution of dermatitis and itch” value ([10]; three additional applications during the night) of the same molecule?
A: The dermatitis and itch resolved early next day
